Assay: osmotic coefficient (dimensionless); mn = molality of the nth substance listed, in mol/kg
Conditions: 308.15 K, Liquid, omometer

O=C[C@H](O)[C@@H](O)[C@H](O)[C@H](O)CO [D-glucose] + O
Conditions	osmotic coefficient
m1 = 0.0557	1.002
m1 = 0.1126	1.005
m1 = 0.1685	1.004
m1 = 0.2236	1.004
m1 = 0.2913	1.004
m1 = 0.3539	1.005
m1 = 0.4081	1.006
m1 = 0.4775	1.006
m1 = 0.5382	1.006
m1 = 0.5708	1.008
m1 = 0.6209	1.008
m1 = 0.6815	1.008
m1 = 0.7347	1.009
m1 = 0.7963	1.009
m1 = 0.9085	1.01
m1 = 1.019	1.012
m1 = 1.109	1.014
m1 = 1.215	1.015
m1 = 1.323	1.017
m1 = 1.569	1.022
m1 = 1.841	1.03
m1 = 2.386	1.044
m1 = 2.945	1.061
m1 = 3.626	1.078
m1 = 4.847	1.11

OC[C@H]1O[C@@](CO)(O[C@H]2O[C@H](CO)[C@@H](O)[C@H](O)[C@H]2O)[C@@H](O)[C@@H]1O [D-sucrose] + O
Conditions	osmotic coefficient
m1 = 0.0296	0.9997
m1 = 0.0581	1.001
m1 = 0.0904	1.008
m1 = 0.1209	1.013
m1 = 0.1534	1.017
m1 = 0.1988	1.019
m1 = 0.2535	1.025
m1 = 0.3157	1.028
m1 = 0.3938	1.032
m1 = 0.477	1.035
m1 = 0.5567	1.039
m1 = 0.5822	1.04
m1 = 0.648	1.042
m1 = 0.7265	1.047
m1 = 0.8492	1.053
m1 = 0.971	1.058
m1 = 1.087	1.065
m1 = 1.186	1.067
m1 = 1.275	1.074
m1 = 1.996	1.149
m1 = 2.679	1.202
m1 = 3.412	1.248
m1 = 3.927	1.276

O=C[C@H](O)[C@@H](O)[C@H](O)CO [D-xylose] + O
Conditions	osmotic coefficient
m1 = 5.333	1.007
m1 = 5.362	1.002
m1 = 5.4	0.9966
m1 = 5.435	0.9919
m1 = 5.468	0.9881
m1 = 5.502	0.987
m1 = 5.516	0.9868
m1 = 5.53	0.9859
m1 = 5.542	0.9858
m1 = 5.551	0.9857
m1 = 5.559	0.9852
m1 = 5.566	0.9853
m1 = 5.574	0.985
m1 = 5.582	0.9853
m1 = 5.59	0.9852
m1 = 5.598	0.9866
m1 = 5.604	0.9869
m1 = 5.611	0.9874
m1 = 5.619	0.9894
m1 = 5.625	0.997

OC[C@@H](O)[C@H](O)[C@@H](O)CO [xylitol] + O
Conditions	osmotic coefficient
m1 = 0.0663	1.002
m1 = 0.1332	1.002
m1 = 0.2029	1.002
m1 = 0.2718	1.002
m1 = 0.3466	1.003
m1 = 0.4199	1.004
m1 = 0.495	1.005
m1 = 0.5643	1.005
m1 = 0.6343	1.005
m1 = 0.7296	1.006
m1 = 0.792	1.007
m1 = 0.8908	1.008
m1 = 0.9999	1.011
m1 = 1.143	1.012
m1 = 1.297	1.015
m1 = 1.474	1.017
m1 = 2.027	1.026
m1 = 2.646	1.036
m1 = 3.289	1.042
m1 = 4.413	1.048

O=C[C@@H](O)[C@@H](O)[C@H](O)[C@H](O)CO [D-mannose] + O
Conditions	osmotic coefficient
m1 = 0.1128	0.9933
m1 = 0.2298	0.989
m1 = 0.3533	0.984
m1 = 0.4798	0.9828
m1 = 0.6097	0.9824
m1 = 0.7659	0.9832
m1 = 0.9375	0.9836
m1 = 1.117	0.9842
m1 = 1.304	0.9852
m1 = 1.829	0.9903
m1 = 2.544	0.9978
m1 = 3.659	1.017

OC[C@@H](O)[C@@H](O[C@H]1O[C@H](CO)[C@@H](O)[C@H](O)[C@H]1O)[C@H](O)[C@@H](O)CO [4-O-α-D-glucopyranosyl-D-glucitol] + O
Conditions	osmotic coefficient
m1 = 0.0292	0.9903
m1 = 0.1187	0.9976
m1 = 0.219	1.012
m1 = 0.3226	1.019
m1 = 0.4282	1.028
m1 = 0.5127	1.031
m1 = 0.5925	1.032
m1 = 0.774	1.049
m1 = 0.9158	1.06
m1 = 1.054	1.067
m1 = 1.261	1.081
m1 = 1.918	1.151
m1 = 2.645	1.217
m1 = 3.591	1.272

OC[C@H]1O[C@H](OC[C@H]2O[C@H](O[C@]3(CO)O[C@H](CO)[C@@H](O)[C@@H]3O)[C@H](O)[C@@H](O)[C@@H]2O)[C@H](O)[C@@H](O)[C@H]1O [D-raffinose] + O
Conditions	osmotic coefficient
m1 = 0.0343	1.002
m1 = 0.1059	1.025
m1 = 0.1837	1.04
m1 = 0.2667	1.062
m1 = 0.3581	1.083
m1 = 0.4515	1.117
m1 = 0.4902	1.134
m1 = 0.6205	1.168

Source: the NIST ThermoML archive (doi:10.1016/j.fluid.2016.02.030)
